Measurements published in paper PMC7955127, “Preclinical small molecule WEHI-7326 overcomes drug resistance and elicits response in patient-derived xenograft models of human treatment-refractory tumors” (Cell Death & Disease, 2021).

Assays:
[1] = test system: SW480; assay: Cell cycle analysis (G2/M arrest, PI staining, flow cytometry), SW480; assay type: cell-based, human; settings: SW480; for EC50: Homo sapiens, overnight incubation, PI staining, flow cytometry, mean of 3 ± SEM, read-out: EC50 (G2/M arrest)
Procedure: Fig. 2 Antimitotic activity of WEHI-7326: cancer cell lines and effects on tubulin polymerization. a Dose-dependent antimitotic activity of WEHI-7326, nocodazol and taxol in tumor cell lines SW480 (colorectal) and MDA-MB-231 (breast). Data are presented as percentage of cells in G2/M after overnight incubation with increasing concentrations of inhibitors and PI staining followed by flow cytometry analysis. Mean average of 3 independent experiments ±SEM. b EC50 values (nM) for G2/M arrest on SW480 and MDA-MB-231 cell lines, given as mean average of 3 independent experiments ±SEM. c Western blot analysis of mitotic arrest in SW480 and MDA-MB-231 cells treated with EC50 concentrations of WEHI-7326 or Paclitaxel as marked by expression of phosho-S10 Histone H3 (p-HH3 S10), at different timepoints post treatment. Expression of β-actin provided as loading control. d Cell cycle analysis of LIM1899 cells 72 h post treatment with increasing concentrations of WEHI-7326 as measured by PI staining for DNA content followed by flow cytometry analysis. Sub-G1 represents apoptotic fractions and >4 N cell fractions of mitotic slippage. e Immunofluorescence confocal microscopy of tubulin polymerization in SW480 cells treated by various agents. Cells were incubated for 24 h with control (0.1% DMSO), nocodazole (1 μM), paclitaxel (1 μM), myoseverin B (1 μM) or WEHI-7326 (1 μM). Cells were fixed and stained with β-tubulin antibody (green) and DAPI (DNA; blue) and phalloidin (actin, red). Shown are single confocal sections and enlarged areas (3x) to highlight changes in microtubule network; scale bar = 20 μm. Representative images from 2 independent experiments. f Cellular tubulin polymerization assay in cells: SW480 cells were incubated overnight with paclitaxel, myoseverin B or WEHI-7326, then processed to detect fractions of polymerized (P) and soluble (S) tubulin by western blot analysis. Representative blot of 3 independent experiments. g Tubulin polymerization was assessed in vitro over time using a fluorescence-based tubulin polymerization assay (BK011P). Tubulin was incubated with control (DMSO), paclitaxel (3 μM), nocodazole (15 μM) and WEHI-7326 at indicated concentrations (in DMSO). Polymerization was measured by excitation at 360 nm and emission at 420 nm. Representative graph of 3 independent experiments performed in duplicates. […]
(§1) Cells in log growth were supplemented with fresh medium with either vehicle (control) or compound at the stated final concentrations. […] After 1 h incubation at room temperature in the dark, cells were analyzed on a FACScan (Becton and Dickinson) in CellQuest. The percentage of cells in each phase of the cell cycle was determined using ModFit software (Verity, http://www.vsh.com). Early and late apoptotic responses elicited by WEHI-7326 were assessed using Dead Cell Apoptosis Kit (ThermoFisher Scientific) with Annexin V FITC and PI following manufacturer’s instructions. Cells were incubated 24 h with 6-point, 4-fold titration of WEHI-7326, washed twice with cold 1X PBS, resuspended in 1X Annexin Binding Buffer, incubated with FITC Annexin V and PI for 15 mins at RT in the dark and subsequently analyzed by flow cytometry.

[2] = test system: MDA-MB-231; assay: Cell cycle analysis (G2/M arrest, PI staining, flow cytometry), MDA-MB-231; assay type: cell-based; settings: Homo sapiens; MDA-MB-231; overnight incubation, PI staining, flow cytometry; mean of 3 ± SEM; read-out: EC50 (G2/M arrest)
Procedure: Fig. 2 Antimitotic activity of WEHI-7326: cancer cell lines and effects on tubulin polymerization. a Dose-dependent antimitotic activity of WEHI-7326, nocodazol and taxol in tumor cell lines SW480 (colorectal) and MDA-MB-231 (breast). Data are presented as percentage of cells in G2/M after overnight incubation with increasing concentrations of inhibitors and PI staining followed by flow cytometry analysis. Mean average of 3 independent experiments ±SEM. b EC50 values (nM) for G2/M arrest on SW480 and MDA-MB-231 cell lines, given as mean average of 3 independent experiments ±SEM. c Western blot analysis of mitotic arrest in SW480 and MDA-MB-231 cells treated with EC50 concentrations of WEHI-7326 or Paclitaxel as marked by expression of phosho-S10 Histone H3 (p-HH3 S10), at different timepoints post treatment. Expression of β-actin provided as loading control. d Cell cycle analysis of LIM1899 cells 72 h post treatment with increasing concentrations of WEHI-7326 as measured by PI staining for DNA content followed by flow cytometry analysis. Sub-G1 represents apoptotic fractions and >4 N cell fractions of mitotic slippage. e Immunofluorescence confocal microscopy of tubulin polymerization in SW480 cells treated by various agents. […] Representative blot of 3 independent experiments. g Tubulin polymerization was assessed in vitro over time using a fluorescence-based tubulin polymerization assay (BK011P). […] Polymerization was measured by excitation at 360 nm and emission at 420 nm. […]
as §1, with “Cells were incubated 24 h with 6-point, 4-fold titration of WEHI-7326, washed twice with cold 1X PBS, resuspended in 1X Annexin Binding Buffer, incubated with FITC Annexin V and PI for 15 mins at RT in the dark and subsequently analyzed by flow cytometry.” left out

[3] = test system: 322 T TNBC PDX; assay: TNBC PDX model 322T; assay type: in vivo, NOD-SCID-IL2Rγc–/– mice; settings: 322 T PDX; docetaxel 10 mg/kg i.p. once; WEHI-7326 20 mg/kg i.v. biweekly
Procedure: (§2) Cohorts of about 30 female mice were seeded with thawed single cell suspensions of early passage human breast tumors (passage 2 or 3). Briefly, 150,000–250,000 cells were resuspended in 10 µl of transplantation buffer (50% fetal calf serum, 10% of a 0.04% trypan blue solution and 40% PBS) and growth-factor-reduced Matrigel [BD] at a ratio of 3:1, and injected into the cleared mammary fat pads of 3- or 4-week-old NOD-SCID-IL2Rγc–/– female mice. Mice were monitored for tumor development three times weekly and tumor size measured using digital Vernier calipers. Tumor volume was estimated by measuring the minimum and maximum tumor diameters using the formula: (minimum diameter)^2 x (maximum diameter)/2. Once tumors arose, mice were randomized into treatment arms. Treatment was initiated when the tumor volume reached 80–120 mm^3. Randomization and tumor measurements were managed using the Study Director software (v 3.0, studylog). Mice were sacrificed at the first measurement where tumor volume exceeded 600 mm^3, or if their health deteriorated for reasons other than disease progression or drug toxicity (censored event).
(§3) Mice were treated with either docetaxel (10 mg/kg; i.p.; once), cisplatin (4 mg/kg; i.p.; once) or WEHI-7326 (20 mg/kg; twice a week (Monday and Thursday); i.v.). Vehicle treated mice were administered with the vehicle for WEHI-7326. Docetaxel was resuspended at 2 mg/ml in PBS:Tween-80:ethanol = 90:5:5 (v/v/v). WEHI-7326 was resuspended at 2 mg/ml in saline.

[4] = test system: 24 T TNBC PDX; assay: TNBC PDX model 24T; assay type: in vivo, NOD-SCID-IL2Rγc–/– mice; settings: 24 T PDX; docetaxel 10 mg/kg i.p. once; WEHI-7326 20 mg/kg i.v. biweekly
Procedure: as §2, §3

[5] = test system: MDA-MB-231 LNA DRE (docetaxel resistant breast cancer) xenograft; assay: Orthotopic MDA-MB-231 LNA-DRE xenograft; assay type: in vivo, Balb/c nude mice; settings: docetaxel 10 mg/kg weekly i.v., WEHI-7326 30 mg/kg biweekly i.v.
Procedure: LoVo (4 × 10^6), PC3 (3 × 10^6) or MDA-MB-231 LNA DRE (10^6) cells were collected by trypsination and injected with 50 μl 1:1 PBS:Matrigel (v/v) subcutaneously on the right flank of 18 female (LoVo), 40 male (PC3) or into 4th mammary fat pad of 40 female (MDA231) Balb/c nude mice. Tumor growth was monitored and average tumor size at commencement of dosing was 100 mm^3. Mice were randomized into 3 arms of each 5 (LoVo), 10 (PC3) or 12 (MDA23) mice respectively and treatment with vehicle (saline), WEHI-7326 (biweekly) or docetaxel (weekly) was administered via tail vein injection. Tumor volumes were measured at least twice weekly with calipers and the experiments were terminated when tumors in the control group started exceeding 1500 mm^3. For LoVo, both vehicle and 25 mg/kg WEHI-7326 groups were harvested 24 h, but 20 mg/kg WEHI-7326 group harvested 1 h post final dose. For PC3, docetaxel group was not harvested in an attempt to grow out resistant tumors.

[6] = test system: MH792 LUSC PDX; assay: LUSC PDX model MH792; assay type: in vivo, NOD-SCID-IL2Rγc–/– mice; settings: MH792 PDX; WEHI-7326 20 mg/kg i.v. biweekly; docetaxel 10 mg/kg i.p. once
Procedure: (§4) LUSC PDXs were generated as described in[25]. PDXs at passage 4 were defrosted and washed with PBS before counting. 200,000 to 500,000 cells were then injected in a 50:50 PBS:Matrigel mix into the flanks of NOD-SCID-IL2Rγc–/– male mice. Tumors were measured twice weekly with calipers and treatment started when tumors were between 70–120 mm^3. Mice were assigned to treatment groups based on average tumor volume per group. Mice were culled when tumors reached a volume of 600 mm^3.

[7] = test system: AH406 LUSC PDX; assay: LUSC PDX model AH406; assay type: in vivo, NOD-SCID-IL2Rγc–/– mice; settings: WEHI-7326 20 mg/kg i.v. biweekly, docetaxel 10 mg/kg i.p. once
Procedure: as §4

[8] = test system: SW480; assay: Cell growth inhibition assay, SW480; assay type: cell-based, human; settings: SW480 colon cancer cell line in vitro
Procedure: Cells were plated at a density of between 500 to 5000 cells per well for adherent cell lines depending on doubling time, and 15,000 cells per well for lymphoblastic leukemia cell lines, in a 96-well plate in 200 μl of growth media. Plates were incubated overnight at 37 °C before adding the inhibitors. Inhibitors were serially diluted from the stock solutions in complete medium and added to the cells. Incubation in the presence of inhibitors was continued for […]. Cell viability was assessed by the AlamarBlue (Invitrogen) or CellTiterBlue/Glo (Promega) method according to manufacturer’s instructions. The curve fits and IC50 values were generated in PRISM (GraphPad, San Diego, CA).
a Chemical structures of the triazine-based anti-mitotics used in this study. b Dose-dependent antiproliferative activity of key derivatives and comparison with commonly used anti-mitotics in SW480 cell line: Data shown is cell viability (as measured by CellTiterGlo) after 72 h relative to untreated control cells. Shown is mean of 3 independent experiments performed in duplicate +/- SEM. c Dose-dependent cell cycle analysis of key derivatives of WEHI-7326 development in SW480 cell line. Data are presented as percentage of cells in G2/M or subG0 after 24 h incubation with titration of inhibitors as assessed by PI staining and flow cytometry. Mean average of 3 experiments +/- SEM. d Comparison of IC50 and EC50 values of triazine compounds and anti-mitotic drugs in SW480 cell line: inhibition of cellular proliferation and cell cycle arrest in G2/M. IC50 and EC50 values are the mean of 3 independent experiments run in duplicates +/- SEM (n.d. = not determined). e HepG2 cytotoxic assay: cell viability assay after 48 h, normalised to 0.4% DMSO (100% viability) and 2 μM bortezomib (0% viability). The data is the mean average of 2 experiments +/- SD.

CC(=O)O[C@H]1C(=O)[C@@]2(C)[C@H]([C@H](OC(=O)c3ccccc3)[C@]3(O)C[C@H](OC(=O)[C@H](O)[C@@H](NC(=O)c4ccccc4)c4ccccc4)C(C)=C1C3(C)C)[C@]1(OC(C)=O)CO[C@@H]1C[C@@H]2O [Paclitaxel, paclitaxel, reference compound]
EC50 [1]: 39.3 ± 4.1 nM | EC50 [2]: 5.6 ± 3.1 nM

CC(=O)O[C@@]12CO[C@@H]1C[C@H](O)[C@@]1(C)C(=O)[C@H](O)C3=C(C)[C@@H](OC(=O)[C@H](O)[C@@H](NC(=O)OC(C)(C)C)c4ccccc4)C[C@@](O)([C@@H](OC(=O)c4ccccc4)[C@H]21)C3(C)C [docetaxel, reference compound]
Survival time [3]: 7 days | Survival time [4]: 11 days | Tumor growth inhibition (TGI) [5]: 70% | Median survival [6]: 22 days | Median survival [7]: 24 days

COc1ccc(CNc2nc(NCc3ccc(OC)cc3)nc(NN3CC(=O)NC3=O)n2)cc1 [compound 6]
G2/M cell cycle arrest [1]: strong G2/M cell cycle arrest | Concentration inhibiting proliferation [8]: at or below micromolar concentration

COC(=O)Nc1nc2ccc(C(=O)c3cccs3)cc2[nH]1 [Nocodazol, nocodazole, reference compound]
EC50 [1]: 57.4 ± 5.9 nM | EC50 [2]: 37.2 ± 7.2 nM
